Experimental data: PMC9500072, “Topical application of an irreversible small molecule inhibitor of lysyl oxidases ameliorates skin scarring and fibrosis” (Nature Communications, 2022)
Several values for one entry are separate records, joined by “and”; a condition that tells them apart may be missing. Equal entries are not always repeated.

System: primary human dermal fibroblasts
Test: qPCR COL1A1 and LOX gene expression
Type: cell-based
Set-up: key to qPCR COLIAI / qPCRLOX: relative expression by 2^−ΔΔCt, GAPDH/PGK1 housekeeping
Procedure: Changes in COL1A1 and LOX gene expression in PXS-4787 treated cells were done using primary human dermal fibroblasts (50,000) seeded in a 6-well plate under Scar-in-a-jar media. The cells were incubated with 0 µM, 1 µM, and 10 µM PXS-4787 treatment for 48 h. mRNA was extracted using RNeasy mini kit® according to the manufacturer’s protocol (Qiagen Gmbh). The total concentration and purity of RNA were determined using a NAnodrop 2000C (Thermo Scientific, USA). For reverse transcription, mRNA was converted to cDNA using QuantiTect Reverse Transcription kit (Qiagen; Catalog no. 205311) according to the manufacturer’s protocol. Quantitative real-time RT-PCR was conducted using SYBR Green Master Mix (Qiagen; Catalog no. 204143) and Rotor gene Q thermocycler (Qiagen). The reactions were carried out in triplicate in 20 µl total volume containing 1 µl cDNA and 2 µl primers. The QuantiTect Primer assay for COL1A1 (Catalog no. QT00037793), LOX (Catalog no. QT00017311) were used. GAPDH (Catalog no. QT00079247) and PGK1 (Catalog no. 249900) were used as a housekeeping gene. The data were analyzed using Rotor geneQ software and the relative gene expression was calculated using the 2−^(∆∆c (t)) method. Three biological samples were used for each condition.

## NC/C=C(\F)CS(=O)(=O)c1ccccc1 [PXS-4787]
0, 1, 10 µM, 48 h
  COL1A1 or LOX RNA levels: No change
1μM
  qPCR COLIAI: 0.9946 and 1.0482 and 1.0167
  qPCRLOX: 1.068 and 1.006 and 0.9855
10 µM
  qPCR COLIAI: 0.9655 and 0.9268 and 1.013
  qPCRLOX: 0.9777 and 0.8786 and 0.9515
